Assay results published in US11524938B2, “Aromatic sulfonamide derivatives” (Bayer Pharma Aktiengesellschaft, priority 2016, dated 2022).
Like-named read-outs stand apart in the source and are kept apart here.

Biological target: T1, human P2X4 (Homo sapiens, UniProt Q99571)
T1 sequence (Q99571 1-388): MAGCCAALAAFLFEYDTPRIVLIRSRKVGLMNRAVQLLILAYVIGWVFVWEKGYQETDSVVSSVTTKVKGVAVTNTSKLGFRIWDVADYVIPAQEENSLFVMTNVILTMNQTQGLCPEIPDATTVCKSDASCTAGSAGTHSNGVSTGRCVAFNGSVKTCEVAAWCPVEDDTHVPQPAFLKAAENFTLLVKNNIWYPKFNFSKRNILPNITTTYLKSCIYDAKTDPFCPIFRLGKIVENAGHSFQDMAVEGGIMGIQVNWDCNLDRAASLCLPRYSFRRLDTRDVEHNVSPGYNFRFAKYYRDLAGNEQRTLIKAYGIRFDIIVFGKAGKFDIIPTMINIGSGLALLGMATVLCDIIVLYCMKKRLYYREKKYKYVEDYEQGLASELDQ
Test: Human P2X4 HEK Cell FLIPR Assay
Format: cell-based
Conditions: agonist Bz-ATP at EC80; for IC50: individual values listed where some fall outside detection range; for Emax: read-out: Human P2X4 HEK Cells (FLIPR Assay) avg Efficacy [%]
Method in brief: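 HEK293 cells stably expressing human P2X4, Fluo8-AM loaded 30 min at 37° C, then compound 30 min at room temperature (0.5% DMSO, pH 7.4 buffer with 1.8 mM CaCl2). Bz-ATP at its daily-determined EC80 added; calcium fluorescence read over 120 sec; IC50 from peak RFU normalized to agonist control, triplicates.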

[1] = HEK293 cells, percentage of maximal inhibition
[2] = HEK293, HEK293 cells, percentage of maximal inhibition

Row | IC50 (HEK293 cells) [nM] | Emax [2] [%] | Human P2X4 HEK Cells (FLIPR Assay) avg Efficacy [%] [1] [%] | SMILES | Emax [1] [%]
1 | 25 | 81 | – | NS(=O)(=O)c1cc(NC(=O)Cc2ccccc2Cl)ccc1-n1cc2ncccc2n1 [Example 255, 2-(2-Chlorophenyl)-N-[4-(2H-pyrazolo[4,3-b]pyridin-2-yl)-3-sulfamoylphenyl]-acetamide] | –
2 | 4070 | 76 | – | NS(=O)(=O)c1cc(NC(=O)Cc2ccccc2F)ccc1-n1ccc(C2CC2)n1 [Example 264, N-[4-(3-Cyclopropyl-1H-pyrazol-1-yl)-3-sulfamoylphenyl]-2-(2-fluorophenyl)-acetamide] | –
3 | 33 | 84 | – | N#Cc1cnn(-c2ccc(NC(=O)Cc3c(Cl)cccc3Cl)cc2S(N)(=O)=O)c1 [Example 187, N-[4-(4-Cyano-1H-pyrazol-1-yl)-3-sulfamoylphenyl]-2-(2,6-dichlorophenyl)acetamide] | –
4 | 47 | 96 | – | NS(=O)(=O)c1cc(NC(=O)Cc2ccccc2F)ccc1-c1cnn(C2CCCC2)c1 [Example 348, N-[4-(1-Cyclopentyl-1H-pyrazol-4-yl)-3-sulfamoylphenyl]-2-(2-fluorophenyl)-acetamide] | –
5 | 92 | 83 | – | NS(=O)(=O)c1cc(NC(=O)Cc2ccccc2OC(F)(F)F)ccc1-c1cncc(C(F)(F)F)c1 [Example 222, N-{3-Sulfamoyl-4-[5-(trifluoromethyl)pyridin-3-yl]phenyl}-2-[2-(trifluoromethoxy)-phenyl]acetamide] | –
6 | 299 | 85 | – | CCOc1ccccc1CC(=O)Nc1ccc(-n2cc(C#N)cn2)c(S(N)(=O)=O)c1 [Example 199, N-[4-(4-Cyano-1H-pyrazol-1-yl)-3-sulfamoylphenyl]-2-(2-ethoxyphenyl)acetamide] | –
7 | 252 | 100 | – | NS(=O)(=O)c1cc(NC(=O)Cc2ccccc2F)ccc1-n1cnc(Cl)n1 [Example 246, N-[4-(3-Chloro-1H-1,2,4-triazol-1-yl)-3-sulfamoylphenyl]-2-(2-fluorophenyl)acetamide] | –
8 | 439 | – | 73 | CC(C(=O)Nc1cnn(-c2ccc(NC(=O)Cc3ccccc3Cl)cc2S(N)(=O)=O)c1)C(F)(F)F (single isomer, unassigned) [Example 510, N-[1-(4-{[(2-Chlorophenyl)acetyl]amino}-2-sulfamoylphenyl)-1H-pyrazol-4-yl]-3,3,3-trifluoro-2-methylpropanamide] | –
9 | 107 | 91 | – | Cc1ccc(Cl)c(CC(=O)Nc2ccc(-n3cc(C(F)(F)F)cn3)c(S(N)(=O)=O)c2)c1 [Example 128, 2-(2-Chloro-5-methylphenyl)-N-{3-sulfamoyl-4-[4-(trifluoromethyl)-1H-pyrazol-1-yl]-phenyl}acetamide] | –
10 | 5450 | 69 | – | NS(=O)(=O)c1cc(NC(=O)Cc2ccc(C(F)F)cc2)ccc1-n1ncc(C(F)(F)F)n1 [Example 410, 2-[4-(Difluoromethyl)phenyl]-N-{3-sulfamoyl-4-[4-(trifluoromethyl)-2H-1,2,3-triazol-2-yl]phenyl}acetamide] | –
11 | 514 | 100 | – | NS(=O)(=O)c1cc(NC(=O)Cc2ccccc2Cl)ccc1-n1nc(C(F)F)cc1C1CC1 [Example 13, 2-(2-Chlorophenyl)-N-{4-[5-cyclopropyl-3-(difluoromethyl)-1H-pyrazol-1-yl]-3-sulfamoylphenyl}acetamide] | –
12 | 54 | 87 | – | Cc1ccc(F)c(CC(=O)Nc2ccc(-n3cc(Cl)cn3)c(S(N)(=O)=O)c2)c1Cl [Example 95, 2-(2-Chloro-6-fluoro-3-methylphenyl)-N-[4-(4-chloro-1H-pyrazol-1-yl)-3-sulfamoyl-phenyl]acetamide] | –
13 | 148 | 72 | – | NS(=O)(=O)c1cc(NC(=O)Cc2ccc(F)cc2F)ccc1-c1cncc(C(F)(F)F)c1 [Example 450, 2-(2,4-Difluorophenyl)-N-{3-sulfamoyl-4-[5-(trifluoromethyl)pyridin-3-yl]phenyl}acetamide] | –
14 | 1340 | 88 | – | NS(=O)(=O)c1cc(NC(=O)Cc2ccc(Cl)cc2)ccc1-c1ccc(Cl)nc1 [Example 459, 2-(4-Chlorophenyl)-N-[4-(6-chloropyridin-3-yl)-3-sulfamoylphenyl]acetamide] | –
15 | 292 | 62 | – | NS(=O)(=O)c1cc(NC(=O)Cc2cccc(F)c2)ccc1-n1cc(F)cn1 [Example 144, 2-(3-Fluorophenyl)-N-[4-(4-fluoro-1H-pyrazol-1-yl)-3-sulfamoylphenyl]acetamide] | –
16 | 31 | 78 | – | CC(C)(O)CCn1cc(-c2ccc(NC(=O)Cc3ccccc3Cl)cc2S(N)(=O)=O)cn1 [Example 287, 2-(2-Chlorophenyl)-N-{4-[1-(3-hydroxy-3-methylbutyl)-1H-pyrazol-4-yl]-3-sulfamoyl-phenyl}acetamide] | –
17 | 1 | 85 | – | NS(=O)(=O)c1cc(NC(=O)Cc2ccccc2Cl)ccc1-n1cccn1 [Example 544, 2-(2-Chlorophenyl)-N-[4-(1H-pyrazol-1-yl)-3-sulfamoylphenyl]acetamide] | –
18 | 13 | 100 | – | NS(=O)(=O)c1cc(NC(=O)Cc2ccccc2Cl)ccc1-c1cnn(C2CCCC2)c1 [Example 329, 2-(2-Chlorophenyl)-N-[4-(1-cyclopentyl-1H-pyrazol-4-yl)-3-sulfamoylphenyl]acetamide] | –
19 | 18 | 59 | – | Cc1ccc(CC(=O)Nc2ccc(-c3cncc(C(F)(F)F)c3)c(S(N)(=O)=O)c2)c(F)c1 [Example 456, 2-(2-Fluoro-4-methylphenyl)-N-{3-sulfamoyl-4-[5-(trifluoromethyl)pyridin-3-yl]phenyl}acetamide] | –
20 | 1520 | 78 | – | Cc1cc(F)c(Br)cc1CC(=O)Nc1ccc(-n2cc(F)cn2)c(S(N)(=O)=O)c1 [Example 166, 2-(5-Bromo-4-fluoro-2-methylphenyl)-N-[4-(4-fluoro-1H-pyrazol-1-yl)-3-sulfamoylphenyl]acetamide] | –
21 | 58 | 87 | – | CC(C)(C)c1cc(-c2ccc(NC(=O)Cc3ccccc3Cl)cc2S(N)(=O)=O)n[nH]1 [Example 292, N-[4-(5-tert-Butyl-1H-pyrazol-3-yl)-3-sulfamoylphenyl]-2-(2-chlorophenyl)acetamide] | –
22 | 47 | 82 | – | NS(=O)(=O)c1cc(NC(=O)Cc2ccccc2Cl)ccc1-n1cc(C2CC2)cn1 [Example 478, 2-(2-Chlorophenyl)-N-[4-(4-cyclopropyl-1H-pyrazol-1-yl)-3-sulfamoylphenyl]acetamide] | –
23 | 558 | 70 | – | COc1ccc(CC(=O)Nc2ccc(-c3cncc(C(F)(F)F)c3)c(S(N)(=O)=O)c2)c(F)c1 [Example 457, 2-(2-Fluoro-4-methoxyphenyl)-N-{3-sulfamoyl-4-[5-(trifluoromethyl)pyridin-3-yl]phenyl}acetamide] | –
24 | 16 | 88 | – | NS(=O)(=O)c1cc(NC(=O)Cc2ccccc2Cl)ccc1-n1cc(-c2cccnc2)cn1 [Example 403, 2-(2-Chlorophenyl)-N-{4-[4-(pyridin-3-yl)-1H-pyrazol-1-yl]-3-sulfamoylphenyl}acetamide] | –

Row | SMILES | IC50 (HEK293 cells) [nM] | Emax [2] [%] | Human P2X4 HEK Cells (FLIPR Assay) avg Efficacy [%] [1] [%] | Emax [1] [%]
25 | NS(=O)(=O)c1cc(NC(=O)Cc2ccccc2F)ccc1-c1nnc(C(F)(F)F)o1 [Example 390, 2-(2-Fluorophenyl)-N-{3-sulfamoyl-4-[5-(trifluoromethyl)-1,3,4-oxadiazol-2-yl]phenyl}acetamide] | 1700 | – | – | 91
